SMILES strings stand for the structures.

The target in experiment [1] is Vitamin K-dependent protein C (Homo sapiens, UniProt P04070). The experiment is described as follows: Tested for inhibitory activity against Activated protein C.
Experiment [2] concerns the target T1, Coagulation factor X (Homo sapiens, UniProt P00742). Briefly: Inhibition of Coagulation factor Xa.
The target in experiment [3] is T1, Coagulation factor X. Briefly: Tested for inhibitory activity against Coagulation factor Xa.
In experiment [4] the target is Plasminogen (Homo sapiens, UniProt P00747). Briefly: Tested for inhibitory activity against plasmin.
For experiment [5], the target named is Tissue-type plasminogen activator (Homo sapiens, UniProt P00750). Briefly: Tested for inhibitory activity against Tissue plasminogen activator.
Experiment [6] addresses Serine protease 1 (Homo sapiens, UniProt P07477). Briefly: Tested for inhibitory activity against trypsin.
In experiment [7] the target is Prothrombin (Homo sapiens, UniProt P00734). Briefly: Tested for inhibitory activity against thrombin.
The target in experiment [8] is T1, Coagulation factor X. The experiment is described as follows: Tested for inhibitory against Coagulation factor Xa at a concentration of 3.9 uM.

Sequence of Plasminogen (P00747 97-580 limits assumed): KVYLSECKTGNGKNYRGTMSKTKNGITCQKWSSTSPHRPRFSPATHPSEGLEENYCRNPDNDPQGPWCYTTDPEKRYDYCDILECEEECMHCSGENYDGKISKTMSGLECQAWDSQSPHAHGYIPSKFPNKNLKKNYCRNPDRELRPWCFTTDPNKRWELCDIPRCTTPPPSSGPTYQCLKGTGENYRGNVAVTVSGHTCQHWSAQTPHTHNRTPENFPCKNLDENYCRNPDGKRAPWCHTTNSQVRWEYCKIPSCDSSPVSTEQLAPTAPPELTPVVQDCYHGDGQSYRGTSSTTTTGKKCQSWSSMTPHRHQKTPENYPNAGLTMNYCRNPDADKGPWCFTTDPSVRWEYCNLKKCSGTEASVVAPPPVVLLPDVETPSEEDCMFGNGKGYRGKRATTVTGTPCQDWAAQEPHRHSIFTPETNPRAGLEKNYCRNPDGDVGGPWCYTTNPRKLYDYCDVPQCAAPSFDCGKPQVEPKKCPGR
Sequence of Plasminogen (P00747 581-810 limits assumed): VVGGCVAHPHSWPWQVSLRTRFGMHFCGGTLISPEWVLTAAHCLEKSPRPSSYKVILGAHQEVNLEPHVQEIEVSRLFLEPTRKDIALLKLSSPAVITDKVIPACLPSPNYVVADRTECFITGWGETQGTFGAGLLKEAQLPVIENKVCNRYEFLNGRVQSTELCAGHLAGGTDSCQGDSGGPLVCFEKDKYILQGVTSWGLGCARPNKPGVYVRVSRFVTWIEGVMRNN
Sequence of Tissue-type plasminogen activator (P00750 whole entry): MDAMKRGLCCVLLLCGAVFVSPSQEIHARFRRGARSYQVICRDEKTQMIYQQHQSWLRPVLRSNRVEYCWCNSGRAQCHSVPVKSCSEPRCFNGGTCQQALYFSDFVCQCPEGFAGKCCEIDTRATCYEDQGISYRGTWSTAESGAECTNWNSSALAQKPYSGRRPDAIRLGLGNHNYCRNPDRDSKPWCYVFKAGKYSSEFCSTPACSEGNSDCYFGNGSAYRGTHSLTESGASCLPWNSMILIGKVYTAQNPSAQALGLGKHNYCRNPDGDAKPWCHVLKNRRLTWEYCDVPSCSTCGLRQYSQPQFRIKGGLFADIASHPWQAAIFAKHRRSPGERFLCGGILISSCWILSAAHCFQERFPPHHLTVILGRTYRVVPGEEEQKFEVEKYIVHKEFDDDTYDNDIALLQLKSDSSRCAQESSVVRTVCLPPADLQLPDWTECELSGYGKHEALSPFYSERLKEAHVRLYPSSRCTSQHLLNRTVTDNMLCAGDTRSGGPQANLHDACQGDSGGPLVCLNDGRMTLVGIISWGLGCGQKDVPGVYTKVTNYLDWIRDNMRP
T1 sequence (P00742 41-179 limits assumed): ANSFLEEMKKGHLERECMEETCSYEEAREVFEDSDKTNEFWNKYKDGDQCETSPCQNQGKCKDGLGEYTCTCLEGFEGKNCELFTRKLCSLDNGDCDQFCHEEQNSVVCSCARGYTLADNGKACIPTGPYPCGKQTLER
T1 sequence (P00742 235-488 limits assumed): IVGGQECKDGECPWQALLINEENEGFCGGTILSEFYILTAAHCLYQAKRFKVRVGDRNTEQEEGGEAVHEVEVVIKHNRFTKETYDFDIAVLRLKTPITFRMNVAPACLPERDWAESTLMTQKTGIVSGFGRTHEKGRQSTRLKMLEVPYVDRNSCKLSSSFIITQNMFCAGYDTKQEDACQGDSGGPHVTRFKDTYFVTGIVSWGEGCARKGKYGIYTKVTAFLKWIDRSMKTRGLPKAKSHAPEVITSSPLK
Sequence of Vitamin K-dependent protein C (P04070 43-197 limits assumed): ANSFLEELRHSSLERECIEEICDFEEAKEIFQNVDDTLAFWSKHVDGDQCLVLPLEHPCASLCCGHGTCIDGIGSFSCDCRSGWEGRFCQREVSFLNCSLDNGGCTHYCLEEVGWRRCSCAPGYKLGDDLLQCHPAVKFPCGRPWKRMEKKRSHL
Sequence of Vitamin K-dependent protein C (P04070 212-461 limits assumed): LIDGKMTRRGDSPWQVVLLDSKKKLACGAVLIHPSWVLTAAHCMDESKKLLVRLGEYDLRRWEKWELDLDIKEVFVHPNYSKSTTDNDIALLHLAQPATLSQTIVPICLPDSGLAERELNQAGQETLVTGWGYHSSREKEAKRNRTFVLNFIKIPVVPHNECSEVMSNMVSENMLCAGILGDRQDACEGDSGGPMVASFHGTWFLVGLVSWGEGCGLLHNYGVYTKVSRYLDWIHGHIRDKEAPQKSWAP
Sequence of Serine protease 1 (P07477 whole entry): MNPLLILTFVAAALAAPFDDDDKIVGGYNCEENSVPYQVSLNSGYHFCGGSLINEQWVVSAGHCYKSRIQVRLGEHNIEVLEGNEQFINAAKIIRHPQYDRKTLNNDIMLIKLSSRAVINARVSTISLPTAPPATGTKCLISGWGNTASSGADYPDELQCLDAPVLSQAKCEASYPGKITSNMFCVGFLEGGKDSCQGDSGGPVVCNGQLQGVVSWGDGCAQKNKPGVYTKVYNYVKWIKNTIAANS

Usually Ki stands for a dissociation constant, usually derived from enzyme kinetics or from competition with a known ligand. A low value points to a stronger hold on the target. Regarding `Nc1ncnc2cc(CN3CCN(Cc4nc5ccc(Cl)cc5[nH]4)CC3=O)ccc12`, the Ki in experiment [1] was above 18000 nM; in experiment [2], 10 nM; in experiment [3], 42 nM; in experiment [4] it was above 7300 nM; in experiment [5], above 8700 nM; in experiment [6], above 2900 nM. In experiment [7], this compound returned a Ki above 4000 nM. Compound `N=C(N)c1ccc(CN2CCN(Cc3nc4ccc(Cl)cc4[nH]3)CC2=O)cc1` had a Ki in experiment [2] of 40 nM. In other words, the double-digit nanomolar range.

For `Nc1ncnc2cc(CN3CCN(Cc4cc5ccc(Cl)cc5[nH]4)CC3=O)ccc12`, the Ki in experiment [2] came out at 390 nM. Take `Nc1ncnc2cc(CN3CCN(S(=O)(=O)c4nc5ccc(Cl)cc5[nH]4)CC3=O)ccc12`: the inhibitory constant (Ki) is above 18000 nM in experiment [1]; 3 nM in experiment [2]; above 7300 nM in experiment [4]; above 8700 nM in experiment [5]; above 2900 nM in experiment [6]; above 4000 nM in experiment [7]. As for `Nc1ncnc2cc(CN3CCN(Cc4nc5ccc(Cl)cc5s4)CC3=O)ccc12`, in experiment [2], the Ki is above 1200 nM. As to `Nc1ncnc2cc(CN3CCN(Cc4cc5cc(Cl)ccc5[nH]4)CC3=O)ccc12`, the Ki in experiment [1] is above 18000 nM; in experiment [2], 24 nM; in experiment [4] it was above 7300 nM; in experiment [5] it was above 8700 nM; in experiment [6], above 2900 nM; in experiment [7] it was above 4000 nM. `Cc1ccc2nc(CN3CCN(Cc4ccc5c(N)ncnc5c4)C(=O)C3)[nH]c2c1` gave a Ki in experiment [2] of 120 nM. Still for that read-out and setting: next, `Nc1ncnc2cc(CN3CCN(Cc4nc5cc(Cl)c(Cl)cc5[nH]4)CC3=O)ccc12`: above 1200 nM. On to `Nc1ncnc2cc(CN3CCN(Cc4nc5ccc(Cl)cc5o4)CC3=O)ccc12`, for which the Ki in experiment [2] is above 1200 nM. Still for that read-out and setting: next, `Nc1ncnc2cc(CN3CCN(Cc4nc5ccc(C(F)(F)F)cc5[nH]4)CC3=O)ccc12`: above 1200 nM; `Nc1ncnc2cc(CN3CCN(Cc4nc5ccccc5[nH]4)CC3=O)ccc12`: 1200 nM; `Cn1c(CN2CCN(Cc3ccc4c(N)ncnc4c3)C(=O)C2)nc2ccc(Cl)cc21`: 290 nM.

By inhibition is commonly meant the drop in the measured response relative to a control, in per cent. Higher therefore signals strong suppression. The compound `N=C(N)c1cccc(CN2CCN(Cc3nc4cc(Cl)ccc4[nH]3)CC2=O)c1` yielded an inhibition in experiment [8] of 42%.

`Nc1ncnc2cc(CN3CCN(Cc4nc5ccc(Br)cc5[nH]4)CC3=O)ccc12` returned an inhibitory constant (Ki) in experiment [2] of 17 nM.

`Nc1ncnc2cc(CN3CCN(Cc4nc5cc(Cl)ccc5[nH]4)CC3)ccc12` came in with an inhibitory constant (Ki) in experiment [2] above 1200 nM. `Nc1ncnc2cc(CN3CCN(Cc4nc5cc(OC(F)(F)F)ccc5[nH]4)CC3=O)ccc12` gave a Ki in experiment [2] above 1200 nM. Same read-out and setting: next, `Nc1ncnc2cc(CN3CCN(Cc4nc5cc(Cl)ccc5o4)CC3=O)ccc12`: 1200 nM. Still for that read-out and setting: next, `N=C(N)c1cccc(CN2CCN(Cc3nc4ccc(Cl)cc4[nH]3)CC2=O)c1`: above 1200 nM.

For the origin of these results see ChEMBL document CHEMBL1135247, “Benzimidazoles and isosteric compounds as potent and selective factor Xa inhibitors” (Bioorg Med Chem Lett, 2002).
